Measured values taken from patent US20040248904A1, “New piperidinylamino-thieno[2,3-d] pyrimidine compounds” (priority 2003, published 2004).
Read-outs that look alike come from different tables or passages of the source.

Experiments:
[1] = target: 5-HT2B (Homo sapiens, UniProt P41595); test: 5-HT2B receptor affinity (K1, Table 1); type: binding
Experimental: (§1) Compounds of the invention were made according to the respective syntheses noted above, and their activity and selectivity was determined. […] The compounds accordingly are expected to be useful as 5-HT2B receptor modulators, e.g., in the treatment of a wide variety of clinical conditions which are characterized by serotonin excess or absence, e.g., serotoninergic hypofunction or hyperfunction. Such conditions include those noted above, and conditions associated with vascular disorders, e.g., angina, migraine, pulmonary hypertension and systemic hypertension.

[2] = tested on: Rat Fundus; test: Functional (Antagonist Rat Fundus); type: cell-based
Experimental: as §1

[3] = Rat pharmacokinetics (% F, T1/2); conditions: in vivo; for bioavailability: oral, read-out: PK (% F) rat

5-HT2B, sequence (P41595 whole entry, species assumed): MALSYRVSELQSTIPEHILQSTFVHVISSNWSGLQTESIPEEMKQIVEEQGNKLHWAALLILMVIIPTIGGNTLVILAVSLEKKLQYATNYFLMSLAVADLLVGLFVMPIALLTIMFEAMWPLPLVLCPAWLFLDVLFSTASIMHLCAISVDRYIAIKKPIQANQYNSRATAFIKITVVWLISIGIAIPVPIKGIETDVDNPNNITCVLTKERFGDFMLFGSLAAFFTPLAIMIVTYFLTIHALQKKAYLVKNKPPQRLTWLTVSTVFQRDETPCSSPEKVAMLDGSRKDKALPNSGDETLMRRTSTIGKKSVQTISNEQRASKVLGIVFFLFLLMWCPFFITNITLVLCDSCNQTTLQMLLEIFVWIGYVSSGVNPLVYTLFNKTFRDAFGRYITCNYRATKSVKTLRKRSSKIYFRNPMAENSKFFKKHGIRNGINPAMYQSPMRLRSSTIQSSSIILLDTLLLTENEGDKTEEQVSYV

Ki [1] [nM] | Compound | also measured
72 | CC(c1c(F)cc(F)cc1F)N1CCC(Nc2ncnc3sc4c(c23)CCCC4)CC1 (stereo not drawn) [Compound 19] | –
14 | CC(c1cccc(F)c1)N1CCC(Nc2ncnc3sccc23)CC1 (stereo not drawn) [Compound 11] | –
15 | CC(C)(c1cccc(F)c1)N1CCC(Nc2ncnc3sc4c(c23)CCCC4)CC1 [Compound 12] | –
950 | Fc1cccc(C(N2CCC(Nc3ncnc4sc5c(c34)CCCC5)CC2)C(F)(F)F)c1 (stereo not drawn) [Compound 24] | –
4.6 | Cc1sc2ncnc(NC3CCN(C(C)c4cccc(F)c4)CC3)c2c1C (stereo not drawn) [Compound 8] | –
20 | CC(C)Cc1cc2c(NC3CCN(C(C)c4c(F)cccc4F)CC3)ncnc2s1 (stereo not drawn) [Compound 15] | –
2.64 | CC(c1cc(F)cc(F)c1)N1CCC(Nc2ncnc3sc4c(c23)CCCC4)CC1 (stereo not drawn) [Compound 5] | IC50 [2]: 1300 nM
7.8 | Cc1sc2ncnc(NC3CCN(CC4CCCCC4)CC3)c2c1C [Compound 9] | –
0.79 | Fc1cccc(CN2CCC(Nc3ncnc4sc(Cl)cc34)CC2)c1 [Compound 2] | –
18 | Fc1cc(F)cc(CN2CCC(Nc3ncnc4sccc34)CC2)c1 [Compound 14] | half-life ([3]; iv, read-out: T1/2 (hr) rat iv (converted)): 0.3 h; IC50 [2]: 1600 nM
13 | c1ccc(CN2CCC(Nc3ncnc4sc5c(c34)CCCC5)CC2)cc1 [Compound 10] | bioavailability [3]: 1.5%; IC50 [2]: 110 nM
17 | Fc1cccc(CNCCCNc2ncnc3sc4c(c23)CCCC4)c1 [Compound 13] | –
210 | Cc1sc2ncnc(NC3CCN(Cc4ccccc4C#N)CC3)c2c1C [Compound 23] | –
1200 | CC(c1cccc(F)c1)N1CCC(C)(Nc2ncnc3sc4c(c23)CCCC4)CC1 (stereo not drawn) [Compound 25] | –
4 | CC(c1cccc(F)c1)N1CCC(Nc2ncnc3sc4c(c23)CCCC4)CC1 (stereo not drawn) [Compound 6] | –
70 | CC(C)Cc1cc2c(NC3CCN(C(C)c4c(F)cc(F)cc4F)CC3)ncnc2s1 (stereo not drawn) [Compound 18] | –
2.3 | Fc1cccc(CN2CCC(Nc3ncnc4sc5c(c34)CCCC5)CC2)c1 [Compound 4] | IC50 [2]: 100 nM
44 | CC(c1c(F)cccc1F)N1CCC(Nc2ncnc3sc4c(c23)CCCC4)CC1 (stereo not drawn) [Compound 16] | –
1300 | CC(C)Cc1cc2c(N3CCC(NCc4cc(F)cc(F)c4)CC3)ncnc2s1 [Compound 26] | –
0.97 | CC(C)Cc1cc2c(NC3CCN(C(C)c4cccc(F)c4)CC3)ncnc2s1 (stereo not drawn) [Compound 3] | bioavailability [3]: 3.9%; half-life ([3]; po, read-out: T1/2 (hr) rat* po (converted)): 0.45 h; IC50 [2]: 5300 nM
4.2 | CC(C)Cc1cc2c(NC3CCN(C(C)c4cc(F)cc(F)c4)CC3)ncnc2s1 (stereo not drawn) [Compound 7] | bioavailability [3]: 2.8%; IC50 [2]: 5700 nM
84 | CC(C)CC(c1cccc(F)c1)N1CCC(Nc2ncnc3sc4c(c23)CCCC4)CC1 (stereo not drawn) [Compound 20] | –
120 | CC(C#N)(c1cccc(F)c1)N1CCC(Nc2ncnc3sc4c(c23)CCCC4)CC1 (stereo not drawn) [Compound 21] | –
150 | CC(C)Cc1cc2c(NCCCNC(C)c3cccc(F)c3)ncnc2s1 (stereo not drawn) [Compound 22] | –
52 | CC(NCCCNc1ncnc2sc3c(c12)CCCC3)c1cccc(F)c1 (stereo not drawn) [Compound 17] | –

Compound | Ki [1] [nM] | also measured
CC(C)c1cc2c(NC3CCN(Cc4cc(F)cc(F)c4)CC3)ncnc2s1 [Compound 1] | 0.57 | bioavailability [3]: 9.8%; IC50 [2]: 830 nM
